This is an account of results in ChEMBL document CHEMBL5214892, “Antitumor potential of the protein phosphatase inhibitor, cantharidin, and selected derivatives” (Bioorg Med Chem, 2021).

≈ marks a conversion by molar mass, not a printed value.

Series [1] can be described thus: Inhibition of bovine brain PP2A assessed as dephosphorylation of substrate using P32 labelled peptide DLDVPIPGRFDRRVSVAAE as substrate by radiometric analysis. Further details: species or system Bos taurus.
For the next series, the system named is KB 3-1. The experiment in a line: Anticancer activity against human KB 3-1 cells assessed as cell growth inhibition measured after 72 hrs by MTT assay. The class given is functional, cell-based. To be noted: KB 3-1, 72 h. In general terms: Tetrazolium dyes change colour on reduction, which living cells bring about.
Series [2] is described as follows: Anticancer activity against human oral cancer cell assessed as cell growth inhibition. The class given is functional, cell-based.
The species named for a further series is Homo sapiens. The series can be described thus: Anticancer activity against human Liver cancer cell assessed as cell growth inhibition. The format is functional.
Series [3] is described as follows: Inhibition of PP1 (unknown origin). More on the design: species or system Homo sapiens.
A further series concerns HL-60. The series can be described thus: Anticancer activity against human HL-60 cells assessed as cell growth inhibition measured after 72 hrs by MTT assay. The format is functional, cell-based. To be noted: HL-60, 72 h.
A short description of series [4]: Inhibition of rabbit liver PP2C assessed as dephosphorylation of substrate using P32 labelled peptide as substrate by radiometric analysis. Further details: species or system Oryctolagus cuniculus.
In series [5] the test system is HepG2. The experiment in a line: Anticancer activity against human HepG2 cells assessed as cell growth inhibition measured after 72 hrs by MTT assay. As to conditions: HepG2, 72 h. The format is functional, cell-based.
Series [6] in a line: Anticancer activity against human leukaemia cell line assessed as cell growth inhibition. The format is functional, cell-based.
Series [7] in a line: Toxicity in mouse assessed as lethal dose administered intraperitoneally. To be noted: in vivo, route ip.
Series [8] relates to HepG2. The series can be described thus: Anticancer activity against human HepG2 cells assessed as cell growth inhibition incubated for 2 days by MTT assay. The class given is functional, cell-based. As to conditions: HepG2, 48 h.
In series [9] the test system is Hep 3B2. The series can be described thus: Anticancer activity against human Hep3B cells assessed as cell growth inhibition incubated for 48 hrs by MTT assay. The class given is functional, cell-based.
A short description of series [10]: Inhibition of PP (unknown origin). More on the design: species or system Homo sapiens.
Another series has as its system SMMC-7721. The experiment in a line: Anticancer activity against human SMMC-7721 cell assessed as cell growth inhibition measured after 24 to 48 hrs by SRB colorimetry assay. The format is functional, cell-based.
The next series deals with Bel-7402. The series can be described thus: Anticancer activity against human Bel-7402 cell assessed as cell growth inhibition measured after 24 to 48 hrs by SRB colorimetry assay. The format is functional, cell-based. Background: The SRB assay estimates cell density from bound dye.
For another series, the system named is DU-145. The experiment in a line: Anticancer activity against human DU-145 cells assessed as cell growth inhibition measured after 72 hrs by MTT assay. The class given is functional, cell-based. As to conditions: DU-145, 72 h.
The next series concerns A-431. The experiment in a line: Anticancer activity against human A-431 cells assessed as cell growth inhibition measured after 72 hrs by MTT assay. To be noted: A-431, 72 h. The format is functional, cell-based.
Another series deals with HT-29. The experiment in a line: Anticancer activity against human HT-29 cells assessed as cell growth inhibition measured after 72 hrs by MTT assay. The format is functional, cell-based. As to conditions: HT-29, 72 h.
A further series deals with MIA PaCa-2. The experiment in a line: Anticancer activity against human MIA PaCa-2 cells assessed as cell growth inhibition measured after 72 hrs by MTT assay. The class given is functional, cell-based. As to conditions: MIA PaCa-2, 72 h.
In another series the test system is BE(2)-C. The experiment in a line: Anticancer activity against human BE2C cells assessed as cell growth inhibition measured after 72 hrs by MTT assay. The format is functional, cell-based.
In the next series the test system is MCF7. The experiment in a line: Anticancer activity against human MCF7 cells assessed as cell growth inhibition measured after 72 hrs by MTT assay. The format is functional, cell-based. To be noted: MCF7, 72 h.
For the next series, the system named is Colon cancer cell line. The experiment in a line: Anticancer activity against human Colon carcinoma cell assessed as cell growth inhibition. The class given is functional, cell-based.
Series [11] concerns Hep 3B2. The experiment in a line: Anticancer activity against human Hep3B cells assessed as cell growth inhibition incubated for 48 hrs by MTS assay. The class given is functional, cell-based.
Series [12] is described as follows: Cytotoxicity against human Bone marrow cell assessed as cell growth inhibition by MTS assay. As to conditions: bone marrow cells. The class given is toxicity, cell-based.
In another series the test system is Lung cancer cell line. The series can be described thus: Anticancer activity against human Lung cancer cell line assessed as cell growth inhibition. The class given is functional, cell-based.
[13] abbreviates: Homo sapiens, Liver cancer cell.

With `C[C@]1(C(=O)O)[C@@H]2CC[C@@H](O2)[C@@]1(C)C(=O)O`, the IC50 is 0.05 µM in [1]; 79.2 µM in the series on KB 3-1; more than 50 µM in series [2]; more than 50 µM in the series listed under Homo sapiens (setting [13]); 0.56 µM in series [3]; 103 µM in the series with HL-60. The figures for the IC50 (in series [4]; in the series with HepG2 [5]; in series [6]) were more than 1000 µM, 218 µM and more than 50 µM, respectively. Further, in series [7], the LD50 amounted to 1.8 mg/kg.
For `O=C(O)[C@@H]1[C@H](C(=O)O)[C@H]2CC[C@@H]1O2` [listing 1 of 2 here], the IC50 in the series on HepG2 [8] is 15.4 µM; in the series filed under Homo sapiens (liver cancer cell) it was 15 µM.
Turning to `CN1C(=O)[C@@]2(C)[C@@H]3CC[C@@H](O3)[C@@]2(C)C1=O`, in the series with Hep 3B2 [9], the IC50 was more than 2000 µM.
With `O=C1OC[C@@H]2[C@H]1[C@H]1CC[C@@H]2O1`, the concentration for half-maximal inhibition (IC50) in series [1] was 99.9 µM; with KB 3-1, 112 µM; in series [3], 62.2 µM; in the series on HL-60 it was more than 200 µM; in the series with HepG2 [5], more than 200 µM.
For the compound `C[C@@]12COC(=O)[C@]1(C)[C@H]1CC[C@@H]2O1`, the IC50 (in series [1]; with KB 3-1; in series [3]; in the series with HL-60; in the series on HepG2 [5]) was more than 200 µM each time.
Take `C[C@@]12C(=O)OC(=O)[C@@H]1[C@H]1CC[C@@H]2O1`: the IC50 in [1] was 0.12 µM; in series [10], less than 1 µM; in series [3], 0.66 µM; in series [4] it was more than 1000 µM.
As to `O=C(O)[C@@H]1[C@H](C(=O)O)[C@H]2CC[C@@H]1O2` [listing 2 of 2 here], the concentration for half-maximal inhibition (IC50) turned out to be 12.5 µM in the series on SMMC-7721, 12.5 µM with Bel-7402 and 12 µM in the series listed under Homo sapiens (setting [13]).
Consider `O=C(NCc1ccc(-c2ccccc2)cc1)C(CNC(=O)[C@H]1[C@@H](C(=O)O)[C@@H]2CC[C@H]1O2)Cc1ccco1` (stereo not given in full), for which the IC50 was found to be 0.026 µM with DU-145; 0.045 µM in the series on A-431; 0.015 µM in the series with HT-29; 0.056 µM in the series with MIA PaCa-2; 0.029 µM in the series with BE(2)-C; 0.027 µM in the series on MCF7. In addition, the IC50 in the series with Colon cancer cell line was found to be 0.015 µM.
In the case of `C[C@@]12C(=O)N(c3ncc([N+](=O)[O-])s3)C(=O)[C@]1(C)[C@H]1CC[C@@H]2O1`, the IC50 was 0.4 µM in the series on Hep 3B2 [9] and less than 1 µM in the series listed under Homo sapiens (setting [13]).
For `C[C@@]12C(=O)N(c3nc4ccc(OC(F)(F)F)cc4s3)C(=O)[C@]1(C)[C@H]1CC[C@@H]2O1` [CANTHARIDIMIDE], the figures for the IC50 (with Hep 3B2 [11]; in series [12]; in the series filed under Homo sapiens (setting [13])) were 15.8 µM, more than 12.5 µg/mL and 6.5 µM, respectively.
Regarding `C[C@@]12C(=O)OC(=O)[C@]1(C)[C@H]1CC[C@@H]2O1` [CANTHARIDIN], the IC50 in series [1] turned out to be 0.04 µM; in the series with KB 3-1, 2.7 µM; in [2] it was 2 µM; in series [12], 6.5 µg/mL (≈ 33.1 µM); with Lung cancer cell line it was 2 µM; in the series listed under Homo sapiens (setting [13]), 2 µM. Besides, the half-inhibitory concentration (IC50) in series [3] was 0.47 µM; in the series with HL-60, 2.7 µM; in series [4] it was more than 1000 µM; in the series on HepG2 [5], 19.1 µM; in [6] it was 2 µM; with Colon cancer cell line, 2 µM. Further, in series [7], the LD50 is 1 mg/kg.
For the compound `O=C1OC(=O)C2C3CCC(O3)C12` (stereo not given) [DEMETHYL-CANTHARIDIN], the IC50 was 0.37 µM in [1]; 69.5 µM in the series with KB 3-1; more than 15 µM in series [2]; more than 15 µM in the series listed under Homo sapiens (setting [13]); 1.98 µM in [3]; 15.7 µM with HL-60. In addition, the half-inhibitory concentration (IC50) with HepG2 [5] was 213 µM; in series [6], more than 15 µM; with Colon cancer cell line, more than 15 µM. In addition, the LD50 in series [7] came to 4 mg/kg.
Consider `O=C(O)[C@@H]1[C@H](C(=O)O)[C@H]2CC[C@@H]1O2` [ENDOTHALL], for which the half-maximal inhibitory concentration (IC50) in series [1] was 0.97 µM; in [10], more than 0.9 µM; in [3] it was 5 µM; in series [4] it was more than 1000 µM. For the same compound, the LD50 in series [7] turned out to be 14 mg/kg.

For orientation: IC50 means the concentration at which inhibition is half-maximal. The LD50 is the dose expected to kill half of the subjects tested.
